Assay results reported in patent US8987195B2 (priority 2012, dated 2015).
Where two headings read alike, the source gives them in different places.

How the values were obtained:
HCV genotype 1b replicon = assay: HCV replicon assay, genotype 1b replicon EC50; format: cell-based, Hepatitis C virus; settings: read-out: EC50 [gt-1b]
In short: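 Assay format: compound titration on stable replicon cells, no G418 during treatment, 24 to 48 hours. Lysates were assayed for replicon RNA (hybridization/protection or TaqMan) or luciferase; EC50 fitted to four parameters against DMSO.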

[1] = target: HCV NS3/4A protease genotype 1b (Hepatitis C virus genotype 1b, UniProt P26663); assay: HCV NS3/4A protease time-resolved fluorescence (TRF) assay, Ki against genotype 1b; format: biochemical
In short: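 Ki was converted from fitted IC50 using IC50=Ki(1+[S]/KM) and 25 nM substrate. Protease (genotype 1b 0.2 nM, A156T 0.4 nM, 3a 0.025 nM) and compound were pre-mixed 30 min in pH 7.5 HEPES/NaCl/glycerol/DTT buffer. Cleavage then proceeded 2.5 h at room temperature, detected by time-resolved europium fluorescence (340/615 nm).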

[2] = Hepatitis C virus, genotype 1b replicon
[3] = IC50 [gt-1b] (nM), NS3/4A genotype 1b, enzyme 0.2 nM
[4] = Hepatitis C virus, HCV replicon, genotype 1b
[5] = IC50 [gt-1b], NS3/4A protease TRF assay, genotype 1b enzyme 0.2 nM

SMILES | EC50 (HCV genotype 1b replicon; [2]) [nM] | IC50 [1, 3] [nM] | also measured
Cc1nc2ccccc2c2c1O[C@]1(CC2)C[C@H]2C(=O)N[C@]3(C(=O)NS(=O)(=O)C4(C)CC4)C[C@H]3/C=C\CCCCC[C@H](NC(=O)O[C@H]3C[C@H]4CC[C@@H]3C4)C(=O)N2C1 [Example 181, (1R,2S,4S)-bicyclo[2.2.1]hept-2-yl [(2R,6S,12Z,13aS,14aR,16aS)-5′-methyl-14a-{[(1-methylcyclopropyl)sulfonyl]carbamoyl}-5,16-dioxo-1,1′,2′,5,6,7,8,9,10,11,13a,14,14a,15,16,16a-hexadecahydrospiro[cyclopropa[e]pyrrolo[1,2-a][1,4]diazacyclopentadecine-2,3′-pyrano[2,3-c]quinolin]-6-yl]carbamate] | 0.39 | 0.017 | 
Cc1nc2ccc(OC(F)F)cc2c2c1O[C@]1(CC2)C[C@H]2C(=O)N[C@]3(C(=O)NS(=O)(=O)C4(C)CC4)C[C@H]3/C=C\CCCCC[C@H](NC(=O)OCC(C)(C)C)C(=O)N2C1 [Example 280, 2,2-dimethylpropyl [(2R,6S,12Z,13aS,14aR,16aS)-9′-(difluoromethoxy)-5′-methyl-14a-{[(1-methylcyclopropyl)sulfonyl]carbamoyl}-5,16-dioxo-1,1′,2′,5,6,7,8,9,10,11,13a,14,14a,15,16,16a-hexadecahydrospiro[cyclopropa[e]pyrrolo[1,2-a][1,4]diazacyclopentadecine-2,3′-pyrano[2,3-c]quinolin]-6-yl]carbamate] | 2.84 | 0.005 | 
Cc1ccc2nc(C)c3c(c2c1)CC[C@]1(C[C@H]2C(=O)N[C@]4(C(=O)NS(=O)(=O)C5(C)CC5)C[C@H]4/C=C\CCCCC[C@H](NC(=O)OC(C)C)C(=O)N2C1)O3 [Example 109, propan-2-yl [(2R,6S,12Z,13aS,14aR,16aS)-5′,9′-dimethyl-14a-{[(1-methylcyclopropyl)sulfonyl]carbamoyl}-5,16-dioxo-1,1′,2′,5,6,7,8,9,10,11,13a,14,14a,15,16,16a-hexadecahydrospiro[cyclopropa[e]pyrrolo[1,2-a][1,4]diazacyclopentadecine-2,3′-pyrano[2,3-c]quinolin]-6-yl]carbamate] | 0.944 | 0.011 | 
COc1ccc2c3c(c(C4CC4)nc2c1)O[C@]1(CC3)CC2C(=O)NC3(C(=O)NS(=O)(=O)C4(C)CC4)CC3/C=C\CCCCC[C@H](NC(=O)OC(C)(C)C)C(=O)N2C1 (stereo partly drawn) [Example 70, tert-butyl [(2R,6S,12Z)-5′-cyclopropyl-8′-methoxy-14a-{[(1-methylcyclopropyl)sulfonyl]carbamoyl}-5,16-dioxo-1,1′,2′,5,6,7,8,9,10,11,13a,14,14a,15,16,16a-hexadecahydrospiro[cyclopropa[e]pyrrolo[1,2-a][1,4]diazacyclopentadecine-2,3′-pyrano[2,3-c]quinolin]-6-yl]carbamate] |  |  | EC50 (HCV genotype 1b replicon; Hepatitis C virus, genotype 1b replicon, K+ salt): 1.39 nM; IC50 ([1]; IC50 [gt-1b] (nM), NS3/4A genotype 1b, enzyme 0.2 nM, K+ salt): 0.028 nM
COCC1(S(=O)(=O)NC(=O)[C@@]23C[C@H]2/C=C\CCCCC[C@H](NC(=O)OCC(F)F)C(=O)N2C[C@@]4(CCc5c(c(C(F)(F)F)nc6ccc(OC)cc56)O4)C[C@H]2C(=O)N3)CC1 [Example 497, 2,2-difluoroethyl [(2R,6S,12Z,13aS,14aR,16aS)-9′-methoxy-14a-({[1-(methoxymethyl)cyclopropyl]sulfonyl}carbamoyl)-5,16-dioxo-5′-(trifluoromethyl)-1,1′,2′,5,6,7,8,9,10,11,13a,14,14a,15,16,16a-hexadecahydrospiro[cyclopropa[e]pyrrolo[1,2-a][1,4]diazacyclopentadecine-2,3′-pyrano[2,3-c]quinolin]-6-yl]carbamate] |  |  | EC50 (HCV genotype 1b replicon; [4]): 1.94 nM; IC50 [1, 5]: 0.014 nM
Cc1nc2ccccc2c2c1O[C@]1(CC2)C[C@H]2C(=O)N[C@]3(C(=O)NS(=O)(=O)C4(C)CC4)C[C@H]3/C=C\CCCCC[C@H](NC(=O)OC(C)C(F)(F)F)C(=O)N2C1 (stereo partly drawn) [Example 197, 1,1,1-trifluoropropan-2-yl [(2R,6S,12Z,13aS,14aR,16aS)-5′-methyl-14a-{[(1-methylcyclopropyl)sulfonyl]carbamoyl}-5,16-dioxo-1,1′,2′,5,6,7,8,9,10,11,13a,14,14a,15,16,16a-hexadecahydrospiro[cyclopropa[e]pyrrolo[1,2-a][1,4]diazacyclopentadecine-2,3′-pyrano[2,3-c]quinolin]-6-yl]carbamate] |  | 0.004 | EC50 (HCV genotype 1b replicon; genotype 1b replicon): 9.87 nM
COc1ccc2nc(C)c3c(c2c1)[C@H](F)C[C@]1(C[C@H]2C(=O)N[C@]4(C(=O)NS(=O)(=O)C5(C)CC5)C[C@H]4/C=C\CCCCC[C@H](NC(=O)OC(C)C(C)(C)C)C(=O)N2C1)O3 (stereo partly drawn) [Example 404, 3,3-dimethylbutan-2-yl [(l′R,2S,6S,12Z,13aS,14aR,16aS)-1′-fluoro-9′-methoxy-5′-methyl-14a-{[(1-methylcyclopropyl)sulfonyl]carbamoyl}-5,16-dioxo-1,1′,2′,5,6,7,8,9,10,11,13a,14,14a,15,16,16a-hexadecahydrospiro[cyclopropa[e]pyrrolo[1,2-a][1,4]diazacyclopentadecine-2,3′-pyrano[2,3-c]quinolin]-6-yl]carbamate] |  |  | EC50 (HCV genotype 1b replicon; [4]): 1.23 nM; IC50 [1, 5]: 0.018 nM
CC(C)(OC(=O)N[C@H]1CCCCC/C=C\[C@@H]2C[C@@]2(C(=O)NS(=O)(=O)C2(C)CC2)NC(=O)[C@@H]2C[C@]3(CCc4c(c(C5CC5)nc5ccc6c(c45)OCO6)O3)CN2C1=O)C(F)(F)F [Example 322, 1,1,1-trifluoro-2-methylpropan-2-yl [(2R,6S,12Z,13aS,14aR,16aS)-7′-cyclopropyl-14a-{[(1-methylcyclopropyl)sulfonyl]carbamoyl}-5,16-dioxo-1,5,6,7,8,9,10,10′,11,11′,13a,14,14a,15,16,16a-hexadecahydrospiro[cyclopropa[e]pyrrolo[1,2-a][1,4]diazacyclopentadecine-2,9′-[1,3]dioxolo[4,5-f]pyrano[2,3-c]quinolin]-6-yl]carbamate] | 6.92 | 0.073 | 
COc1ccc2nc(C3CC3)c3c(c2c1)CC[C@]1(C[C@H]2C(=O)N[C@]4(C(=O)NS(=O)(=O)C5(C)CC5)C[C@H]4/C=C\CCCCC[C@H](NC(=O)OCC(C)C)C(=O)N2C1)O3 [Example 100, 2-methylpropyl [(2R,6S,12Z,13aS,14aR,16aS)-5′-cyclopropyl-9′-methoxy-14a-{[(1-methylcyclopropyl)sulfonyl]carbamoyl}-5,16-dioxo-1,1′,2′,5,6,7,8,9,10,11,13a,14,14a,15,16,16a-hexadecahydrospiro[cyclopropa[e]pyrrolo[1,2-a][1,4]diazacyclopentadecine-2,3′-pyrano[2,3-c]quinolin]-6-yl]carbamate] | 2.08 | 0.011 | 
COCC(C)(C)OC(=O)N[C@H]1CCCCC/C=C\[C@@H]2C[C@@]2(C(=O)NS(=O)(=O)C2(C)CC2)NC(=O)[C@@H]2C[C@@]3(CN2C1=O)CC(F)(F)c1c(c(C(C)C)nc2ccc(OC)cc12)O3 [Example 242, 1-methoxy-2-methylpropan-2-yl [(2S,6S,12Z,13aS,14aR,16aS)-1′,1′-difluoro-9′-methoxy-14a-{[(1-methylcyclopropyl)sulfonyl]carbamoyl}-5,16-dioxo-5′-(propan-2-yl)-1,1′,2′,5,6,7,8,9,10,11,13a,14,14a,15,16,16a-hexadecahydrospiro[cyclopropa[e]pyrrolo[1,2-a][1,4]diazacyclopentadecine-2,3′-pyrano[2,3-c]quinolin]-6-yl]carbamate] | 3.38 | 0.022 | 
CC(C)NC(=O)N[C@H]1CCCCC/C=C\[C@@H]2C[C@@]2(C(=O)NS(=O)(=O)C2(C)CC2)NC(=O)[C@@H]2C[C@]3(CCc4c(c(-c5cccc(F)c5)nc5ccccc45)O3)CN2C1=O [Example 85, (2R,6S,12Z,13aS,14aR,16aS)-5′-(3-fluorophenyl)-N-[(1-methylcyclopropyl)sulfonyl]-5,16-dioxo-6-[(propan-2-ylcarbamoyl)amino]-1,1′,2′,6,7,8,9,10,11,13a,14,15,16,16a-tetradecahydrospiro[cyclopropa[e]pyrrolo[1,2-a][1,4]diazacyclopentadecine-2,3′-pyrano[2,3-c]quinoline]-14a(5R)-carboxamide] | 1.31 | 0.013 | 
CCNC(=O)N[C@H]1CCCCC/C=C\[C@@H]2C[C@@]2(C(=O)NS(=O)(=O)C2(C)CC2)NC(=O)[C@@H]2C[C@]3(CCc4c(c(C)nc5ccccc45)O3)CN2C1=O [Example 286, (2R,6S,12Z,13aS,14aR,16aS)-6-[(ethylcarbamoyl)amino]-5′-methyl-N-[(1-methylcyclopropyl)sulfonyl]-5,16-dioxo-1,1′,2′,6,7,8,9,10,11,13a,14,15,16,16a-tetradecahydrospiro[cyclopropa[e]pyrrolo[1,2-a][1,4]diazacyclopentadecine-2,3′-pyrano[2,3-c]quinoline]-14a(5H)-carboxamide] | 119 | 0.015 | 
Cc1nc2ccccc2c2c1O[C@]1(CC2)C[C@H]2C(=O)N[C@]3(C(=O)NS(=O)(=O)C4(C)CC4)C[C@H]3/C=C\CCCCC[C@H](NC(=O)OC(C)C3CC3)C(=O)N2C1 (stereo partly drawn) [Example 126, 1-cyclopropylethyl [(2R,6S,12Z,13aS,14aR,16aS)-5′-methyl-14a-{[(1-methylcyclopropyl)sulfonyl]carbamoyl}-5,16-dioxo-1,1′,2′,5,6,7,8,9,10,11,13a,14,14a,15,16,16a-hexadecahydrospiro[cyclopropa[e]pyrrolo[1,2-a][1,4]diazacyclopentadecine-2,3′-pyrano[2,3-c]quinolin]-6-yl]carbamate] | 2.61 | 0.029 | 
